The procedure of this data set: The stability of dexmedetomidine hydrochloride to acidic, basic, oxidative and photolytic stress was examined. […] Each sample was injected in duplicate.

Where a name gives a salt, the structure may show the parent alone. Read-outs that look alike come from different tables or passages of the source.

Turning to `Cc1cccc([C@H](C)c2cnc[nH]2)c1C` [dexmedetomidine hydrochloride], the “degradation compared to the control sample” value (8 h, 13.3 μg/mL) worked out at 12.7%. For the same compound, the Assay by setting is: (Acid Sample: 5N Hydrochloric Acid, 60° C., 8 hours) 95.2%; (Base Sample: 2N Sodium Hydroxide, 60° C., 4 hours) 93.8%; (Control Sample, not subjected to any stress) 98.4%; (Heat Sample: 60° C., 8 hours) 98.4%; (Light Sample: photochemical reaction unit, 24 hours) 92.0%; (Oxidation Sample: 0.3% Hydrogen Peroxide, 60° C., 8 hours) 85.7%.

Values taken from patent US10016396B2, “Dexmedetomidine premix formulation” (Hospira, Inc., priority 2012, dated 2018).
